Laboratory results taken from patent US11596716B2, “Compounds and matrices for use in bone growth and repair” (Human BioMolecular Research Institute, priority 2013, dated 2023).
pEC50: −log10 of the molar value. Like-named read-outs stand apart in the source and are kept apart here.

What was measured:
Wnt transcription = test: WNT transcriptional reporter assay (Super(8×)TOPflash luciferase, HEK293T cells); type: cell-based; conditions: Wnt3A-expressing vector, 20 hrs, relative to cells treated with DMSO alone, read-out: Wnt transcription potency
Text: Commercially available Super(8×)TOPflash vector driven by a (7×) TCF-firefly luciferase response element was transiently transfected into HEK293T cells, together with a TK-driven Renilla luciferase plasmid as an internal control to normalize the luminescence signal and a Wnt3A-expressing vector as the source of pathway activation. HEK293T cells were transfected with plasmids in DMEM plus 10% fetal bovine serum (FBS) for 8 hr, replated to 96-well plates in DMEM plus 10% FBS followed by treatment with compounds (1.6 nM to 5 M) (DMSO final concentration is 0.5%) for 20 hrs. Firefly and Renilla luciferase activities were measured and normalized by the Renilla luciferase values.

C2C12 cells = test: Alkaline Phosphatase (ALP) functional activity assay in C2C12 cells; type: cell-based, Mouse; conditions: normalized to DMSO treatment; for activation at 0.5 µM: Mus musculus, C2C12, 144 h
Protocol: Alkaline Phosphatase (ALP) Functional Activity Assay: C2C12 cells were plated into 12-well plates with 7,000 cells/well in 1 mL growth media. […] 1, 2, 3, or 4 in 0.1% DMSO was added (500 nM). Half the media was exchanged with fresh media containing compound every 48 hrs. After 6 days, media was removed, ALP Lysis Buffer (10 mM Tris-HCl pH 8.0, 1 mM MgCl2, and 1% Triton X100) added, and cell lysate obtained (10 min incubation at RT) by centrifugation (5 min at 3500× g at 4° C.). Para-nitrophenol phosphate (pNPP) (2 mg/mL) was incubated with 50 μl cell lysate (10 mins, 37° C.). After addition of […] 0.02 N NaOH, absorbance OD405 was measured. Protein concentration was determined by Bradford protein assay. Results of ALP activity were plotted as nM pNP hydrolyzed/mg total protein. After normalizing control samples (i.e., DMSO-treated samples) to one-fold, the fold-changes were plotted to indicate the relative ALP activity. […] This protocol was applied to hMSC and E15 cells as well.

hMSCs = test: qPCR of target gene mRNA expression in hMSCs; type: cell-based, human; conditions: hMSCs, comparison with compound 3 and calcium phosphate ceramic
Protocol: qPCR detection of osteogenic markers: Cells were cultured with compound in the presence or absence of matrix as described above, but using 96-well plate format. Total RNA was extracted from cells (as above) using Trizol. cDNA was made using 750 ng of total RNA with Bio-Rad iscript kit and was diluted 20-fold before being used for qPCR. qPCR was conducted under the following conditions: 95° C., 2 min; 95° C., 10 s and 60° C., 45 s for 40 cycles; 60° C. for 71 cycles for melt curve. qPCR results were analyzed by the ΔΔCt method. 18s rRNA was used as an internal standard. This protocol was applied to hMSC and E15 cells.
Runx2 and BMP-2 are osteogenic markers; Axin2, Wnt3a, and Sox 9 are Wnt-inducible gene markers.
The assay for mRNA expression followed the same procedure with hMSCs as described for C2C12 cells (Example 7).

[1] = compounds of Formula II or IV, absence of matrix
[2] = compounds of Formula II or IV, presence of calcium phosphate matrix
[3] = compounds of Formula VI, absence of matrix
[4] = compounds of Formula VI, presence of calcium phosphate matrix

Row | SMILES | activation at 0.5 µM (C2C12 cells; [1]) | activation at 0.5 µM (C2C12 cells; [2]) | activation at 0.5 µM (C2C12 cells; [3]) | activation at 0.5 µM (C2C12 cells; [4]) | also measured
1 | Cc1nc2c(-c3ccccc3)cnn2c(NCCC(C)C)c1C [Compound 32, 3-phenyl-5,6-dimethyl-7-[N-(3-methylbutyl)amino]-pyrazolo[1,5-a]pyrimidine] | < 5% | < 5% |  |  | pEC50 (Wnt transcription; Homo sapiens, HEK-293T): < 7.40
2 | Cc1ccc(N[C@@H]2C[C@H](C)N(C(=O)c3ccccc3)c3ccc(C)cc32)cc1 (relative stereo) [Compound 18, cis-1-benzoyl-2,6-dimethyl-N-(p-methylphenyl)-1,2,3,4-tetrahydroquinolin-4-amine] | > 100% | < 5% |  |  | 
3 | CN(C)c1ccc(C=CC(=O)C=C(O)C=Cc2ccc(N(C)C)cc2)cc1 [Compound 47, 1,7-Bis-(4-dimethylaminophenyl)-5-hydroxy-hepta-1,4,6-trien-3-one] |  |  | > 100% | < 5% | 
4 | C[C@H]1C[C@H](Nc2ccc(F)cc2)c2cc(F)ccc2N1C(=O)c1ccccc1 (relative stereo) [Compound 24, trans-1-benzoyl-2-methyl-6-fluoro-N-(p-fluorophenyl)-1,2,3,4-tetrahydroquinolin-4-amine] | 50 to 100% | < 5% |  |  | 
5 | COc1ccc(N[C@@H]2C[C@H](C)Nc3ccc(OC)cc32)cc1 (relative stereo) [Compound 11, cis-2-methyl-6-methoxy-N-(p-methoxyphenyl)-1,2,3,4-tetrahydroquinolin-4-amine] | < 5% | 50 to 100% |  |  | 
6 | COc1cc(N(C)C)ccc1C=CC(=O)C=C(O)C=Cc1ccc(N(C)C)cc1OC [Compound 39, 1,7-Bis(4-dimethylamino-2-methoxyphenyl). 5-hydroxy-hepta-1,4,6-trien-3-one] |  |  |  |  | ALP activity −matrix (C2C12 cells; [3]): +++ (>100%); ALP activity +matrix (C2C12 cells; [4]): − (<5%)
7 | CC(=O)N1c2ccc(C)cc2[C@@H](N(C(C)=O)c2ccc(C)cc2)C[C@@H]1C (relative stereo) [Compound 27, trans-1-acetyl-2,6-dimethyl-N-(p-methylphenyl)-N-acetyl-1,2,3,4-tetrahydroquinolin-4-amine] | 5 to 50% | 5 to 50% |  |  | 
8 | COc1cc(O)ccc1C=CC(=O)C=C(O)C=Cc1ccc(O)cc1OC [Compound 49, 5-Hydroxy-1,7-bis-(4-hydroxy-2-methoxyphenyl)-hepta-1,4,6-trien-3-one] |  |  | 50 to 100% | < 5% | 
9 | Cc1nc2c(-c3ccccc3)cnn2c(N2CCN(C)CC2)c1C [Compound 31, 3-phenyl-5,6-dimethyl-7-(N-methyl-N-piperazinyl)-pyrazolo[1,5-a]pyrimidine] |  |  |  |  | pEC50 (Wnt transcription): 7.40 to 7.82; ALP activity −matrix (C2C12 cells; [1]): + (5-50%); ALP activity +matrix (C2C12 cells; [2]): + (5-50%)
10 | NCCCCC(N)C(=O)Oc1ccc(C=CC(=O)CC(=O)C=Cc2ccc(OC(=O)C(N)CCCCN)cc2)cc1 [Compound 69, (2S,2′S)—O,O′-(3,5-Dioxohepta-1,6-diene-1,7-diyl)bis(4,1-phenylene) bis(2,6-bis-amino)hexanoate] |  |  |  |  | ALP activity −matrix (C2C12 cells; [3]): − (<5%); ALP activity +matrix (C2C12 cells; [4]): + (5-50%)
11 | COc1ccc(C=CC(=O)C=C(O)C=Cc2ccc(OC)c(O)c2)cc1O [Compound 48, 5-Hydroxy-1,7-bis-(3-hydroxy-4-methoxyphenyl)-hepta-1,4,6-trien-3-one] |  |  | > 100% | < 5% | 
12 | COc1cc(C=CC(=O)C=C(O)C=Cc2ccc(O)c(OC)c2)ccc1O [Compound 38, 1,7-Bis(4-hydroxy-3-methoxyphenyl)-5-hydroxy-hepta-1,4,6-trien-3-one] |  |  | 5 to 50% | > 100% | robust mRNA up-regulation of VDR or ALP (hMSCs): not observed
13 | CC(=O)N1c2ccc(F)cc2[C@@H](Nc2ccc(F)cc2)C[C@@H]1C (relative stereo) [Compound 22, trans-1-acetyl-2-methyl-6-fluoro-N-(p-fluorophenyl)-1,2,3,4-tetrahydroquinolin-4-amine] | 5 to 50% | < 5% |  |  | 
